Experimental data from article PMC5573760 (Cancer Chemotherapy and Pharmacology, 2017).
Values joined by “and” are separate entries in the source; they are usually repeats but may differ in a detail not shown here. Identical values can stand only once. “Also recorded” adds a separate entry of the source.

Assays:
[1] = Mass balance: excretion of radioactivity, copanlisib and metabolites in urine and feces; type: in vivo, human; conditions: for Amount excreted in feces as this component, arithmetic mean (range): HPLC with off-line radioactivity detection
Procedure: After pooling and homogenization of urine and feces samples per time interval, aliquots were stored at −20 °C for total radioactivity determination and at −70°C for metabolic profiling (including blood/plasma samples). For determination of total radioactivity, samples were analyzed with a Perkin Elmer Tri-Carb™ 3100 TR liquid scintillation analyzer (Perkin Elmer, Waltham, MA, USA) with quenching correction. For metabolite profiling, plasma samples were treated with a mixture of acetonitrile (ACN) +0.2% acetic acid, after shaking and centrifugation, the supernatant was concentrated. Urine and feces samples were treated with solid-phase extraction (Waters HLB 30 mg, 1 mL, Waters, Milford, MA, USA) and liquid–liquid extraction (ACN + 0.2% trifluoroacetic acid/water, 80:20 volume/volume), respectively. Subsequently samples from plasma, urine and feces were analyzed by HPLC-LSC on Synergi Polar 4 µm 150 × 2 mm (Phenomenex, Aschaffenburg, Germany) with off-line radioactivity detection by Microbeta^2™ Plus liquid scintillation counter with Ultima Flo™ AP scintillation fluid (Packard Instrument BV, Groningen, The Netherlands).
Metabolite patterns in plasma, urine and feces were studied by the HPLC method with off-line radioactivity detection described above.
A similar approach has been described earlier.

[2] = Safety and tolerability assessment in healthy male volunteers; type: in vivo, human
Source text: Physical examination, blood pressure, pulse rate, body temperature and body weight, laboratory parameters and 12-lead electrocardiogram (ECG), as well as adverse events using the common terminology criteria for adverse events (CTCAE) Version 4.03, were monitored throughout the study for safety assessment.

plasma protein = conditions: reversible; cited from earlier work
P-glycoprotein (P-gp) = system: P-glycoprotein (P-gp); parameters: method as in Bayer AG, data on file; conditions: in vitro; ref Bayer AG, data on file; cited from earlier work
[3] = cited from earlier work
PI3K-α = conditions: cited from earlier work
[4] = system: primary malignant B cell lines; conditions: cited from earlier work
[5] = all 6 subjects after individual study release (Day 20–Day 34)
[6] = study release at Day 20 (N = 6)
[7] = study release at Day 27 (N = 5)
[8] = study release at Day 34 (N = 3)

In the case of `COc1c(OCCCN2CCOCC2)ccc2c1N=C(NC(=O)c1cnc(N)nc1)N1CCN=C21` [Copanlisib, copanlisib], the “Total radioactivity excreted in feces, arithmetic mean” value [1, 5] is reported as 64.2 (56.7–68.1) % of dose, the “Total radioactivity excreted in feces, range” value [1, 5] is reported as 56.7–68.1% and the “Total radioactivity excreted in urine, arithmetic mean” value [1, 5] is reported as 21.7 (17.0–27.4) % of dose. For the same compound, the “Total radioactivity excreted in urine, range” value [1, 5] was 17.0–27.4%, the “Total radioactivity recovery in urine and feces, mean” value [1, 5] was 86% and 85.9 ± 3.4% and about 86% and the “Total radioactivity recovery in urine and feces, range” value [1, 5] was 81.7–91.0%. For the same compound, the “Amount excreted in feces as this component, arithmetic mean (range)” value ([1]; 6 subjects) was 30.1 (16.8–37.9) % of dose, the “Amount excreted in feces as this component, arithmetic mean (range)” value ([1]; 6 subjects, listed as copanlisib) was 30 % of dose and the “Dose cleared via metabolism” value ([1]; in vivo) was “about 41%”. For the same compound, the “Renal clearance (A e,ur/AUC) as share of total body clearance” value ([1]; in vivo) was “about 15%”, the “Share of observed renal clearance accounted for by passive renal filtration” value ([1]; in vivo) was “about one to two-thirds” and the “Excreted radioactivity in feces, mean” value [1, 6] was 61.0 ± 4.1%. The “Excreted radioactivity in feces, range” value [1, 6] was 54.8–66.7%, the “Excreted radioactivity in urine, mean” value [1, 6] was 20.0 ± 3.5% and the “Excreted radioactivity in urine, range” value [1, 6] was 16.3–26.5%. The “Excreted total radioactivity in urine and feces, mean” value (shortened to “Excreted total radioactivity … mean”) [1, 6] was 81.0 ± 2.1%, the “Excreted total radioactivity in urine and feces, range” value (“Excreted total radioactivity … range” for short) [1, 6] was 77.8–83.0% and the “Excreted radioactivity in feces, mean” value [1, 7] was 63.4 ± 4.5%. The “Excreted radioactivity in feces, range” value [1, 7] was 56.7–67.4%, the “Excreted radioactivity in urine, mean” value [1, 7] was 21.5 ± 3.9% and the “Excreted radioactivity in urine, range” value [1, 7] was 17.0–27.4%. For the same compound, the “Excreted total radioactivity … mean” value [1, 7] was 84.9 ± 2.3%, the “Excreted total radioactivity … range” value [1, 7] was 82.3–88.5% and the “Excreted radioactivity in feces, mean” value [1, 8] was 66.1 ± 3.2%. The “Excreted radioactivity in feces, range” value [1, 8] was 62.4–68.1%, the “Excreted radioactivity in urine, mean” value [1, 8] was 22.2 ± 1.4% and the “Excreted radioactivity in urine, range” value [1, 8] was 20.6–23.1%. The “Excreted total radioactivity … mean” value [1, 8] was 88.3 ± 2.9%, the “Excreted total radioactivity … range” value [1, 8] was 85.2–91.0% and the “Radioactivity excreted that could be assigned to known structures” value ([1]; urine and feces) was “Over 98%”. For the same compound, the “Amount of dose recovered as this component in urine and feces combined” value ([1]; urine plus feces, 6 subjects) was 45.1 % of dose, the “Amount of dose recovered as this component in urine and feces combined, range” value ([1]; urine plus feces, range of 6 subjects) was 33.3–53.8% and the “Adverse events related to copanlisib” value ([2]; 12 mg, 6 healthy subjects) was “Three mild-to-moderate gastrointestinal adverse events”. The “Subjects with TEAEs assessed as related to the study drug” value ([2]; abdominal pain, diarrhea and nausea) was 2, the “Total number of gastrointestinal TEAEs” value ([2]; abdominal pain, nausea, flatulence, frequent bowel movements, diarrhea) was 5 and the Neutrophils and leukocytes ([2]; all 6 healthy volunteers, all above 2/3 of the lower limit for normal values) was “transient decrease”. For the same compound, the “Other laboratory values, ECG or vital signs” value ([2]; human, in vivo) was “No clinically relevant changes”, the Tolerability ([2]; single i.v. dose of 12 mg copanlisib, 6 healthy subjects) was “well tolerated” and the “Deaths or serious adverse events” value ([2]; single i.v. dose of 12 mg, 6 healthy subjects) was “No death or SAEs; also recorded: without any serious adverse event”. The “Volunteers with at least one treatment emergent adverse event (TEAE)” value ([2]; single i.v. dose of 12 mg, 6 volunteers) was “Three out of the 6”, the “free fraction (fraction unbound in plasma), plasma protein binding” value (plasma protein) was 15.8% and the “Substrate of efflux transporter P-gp” value (P-glycoprotein (P-gp)) was “substrate”. The “mean systemic plasma clearance” value ([3]; %CV 51.2, dose escalation study) was 18.9 L/h, the “Accumulation and time dependency after once weekly dosing” value ([3]; PK on Cycle 1 Days 1 and 15 and Cycle 3 Day 15, dose escalation study) was “No accumulation and no time dependency” and the “Half-life, range (known PK of copanlisib)” value [3] was 16.9 to 72.7 h. The “Dose dependence of C max and AUC (0–25)” value ([3]; dose range 0.1–1.2 mg/kg (5–93 mg total dose), dose escalation study) was “dose proportional increases”, the “terminal phase half-life (t 1/2)” value ([3]; human, in vivo, 0.8 mg/kg) was 39.1 h and the volume of distribution ([3]; human, in vivo, 0.8 mg/kg) was 871 L. The PI3K-α inhibitory activity (PI3K-α) was “predominant PI3K-α and PI3K-δ inhibitory activity” and the Tumor cell death [4] was “induce tumor cell death including apoptosis”.
